Data on three compounds can be found in ChEMBL document CHEMBL3297657, “Synthesis and antitumor activities of novel α-aminophosphonate derivatives containing an alizarin moiety” (Eur J Med Chem, 2014).

In experiment [1] the test system is NCI-H460. The experiment in a line: Induction of apoptosis in human NCI-H460 cells assessed as early apoptotic cells at 8 uM after 12 hrs by Annexin V/propidium iodide staining-based flow cytometry (reference value: 6.8%). Type of experiment: functional. A general note: Flow cytometry measures light scatter and fluorescence of single cells or particles in a stream.

Experiment [2] relates to NCI-H460. The experiment can be described thus: Induction of apoptosis in human NCI-H460 cells assessed as necrotic cells at 10 uM after 24 hrs by Annexin V/propidium iodide staining-based flow cytometry (reference value: 6.9%). Type of experiment: functional.
The subject of experiment [3] is NCI-H460. The experiment can be described thus: Induction of apoptosis in human NCI-H460 cells assessed as necrotic cells at 20 uM after 24 hrs by Annexin V/propidium iodide staining-based flow cytometry (reference value: 6.9%). The format is functional.
In experiment [4] the test system is NCI-H460. The experiment can be described thus: Induction of apoptosis in human NCI-H460 cells assessed as viable cells at 10 uM after 24 hrs by Annexin V/propidium iodide staining-based flow cytometry (reference value: 72.2%). Type of experiment: functional. The note with it: NCI-H460, 24 h, read-out: Activity.
For experiment [5], the system named is NCI-H460. The experiment in a line: Induction of apoptosis in human NCI-H460 cells assessed as upregulation of AIF mRNA expression after 24 hrs by qRT-PCR analysis. The format is functional, cell-based. A general note: Real-time PCR tracks product formation cycle by cycle.

Regarding `CCOP(=O)(OCC)C(NC(=O)C(C)Oc1ccc2c(c1O)C(=O)c1ccccc1C2=O)c1cccc2ccccc12` (stereo not given), the Activity was 19.9% with NCI-H460 [1], 1.1% with NCI-H460 [2], 1.4% in the experiment with NCI-H460 [3] and “Dose-dependent effect” in the experiment with NCI-H460 [5]. Besides, the viability at 10 µM in the experiment on NCI-H460 [4] turned out to be 44.6%.

As for `CCOP(=O)(OCC)C(NC(=O)C(C)Oc1ccc2c(c1O)C(=O)c1ccccc1C2=O)c1ccccc1OC` (stereo not given), the Activity is 21.9% in the experiment with NCI-H460 [1], 8.4% in the experiment with NCI-H460 [2], 12.9% in the experiment with NCI-H460 [3] and “Dose-dependent effect” with NCI-H460 [5]. Further, the viability at 10 µM in the experiment with NCI-H460 [4] is 41.4%.

With `CCOP(=O)(OCC)C(NC(=O)C(C)Oc1ccc2c(c1O)C(=O)c1ccccc1C2=O)c1ccccc1F` (stereo not given), the Activity in the experiment on NCI-H460 [1] is 30.3%; with NCI-H460 [2], 0.8%; with NCI-H460 [3], 1.4%; in the experiment with NCI-H460 [5], “Dose-dependent effect”. For the same compound, in the experiment on NCI-H460 [4], the viability at 10 µM is 36.2%.
